Tests used:
Assay type in all cases: cell-based, HCV
[1] = tested on: genotype 3a NS3 gene in transient replicon; assay: 3a transient replicon (luciferase reporter); settings: Hepatitis C virus, Huh-7, read-out: 3a transient replicon (nM)
[2] = tested on: genotype 1b transient replicon; assay: 1b transient replicon (luciferase reporter); settings: Hepatitis C virus, HuH-7 cells, 5% FBS
[3] = tested on: genotype 1a transient replicon (1a-H77); assay: 1a transient replicon (luciferase reporter); settings: Hepatitis C virus, HuH-7 cells, 5% FBS

Row | Compound | EC50 [1] [nM] | EC50 [2] [nM] | EC50 [3] [nM]
1 | COc1ccc2c(c1)nc(O[C@@H]1C[C@H]3C(=O)N[C@]4(C(=O)NS(=O)(=O)C5(C)CC5)C[C@H]4/C=C\CCCCC[C@H](NC(=O)c4ccon4)C(=O)N3C1)c1ccc(F)cc12 | 0.1 to 0.5 | 0.1 to 0.5 | < 0.1
2 | CC1(S(=O)(=O)NC(=O)[C@@]23C[C@H]2/C=C\CCCCC[C@H](NC(=O)[C@H](O)C(F)(F)F)C(=O)N2C[C@H](Oc4nc5cc(OC(F)(F)F)ccc5c5ccc(F)cc45)C[C@H]2C(=O)N3)CC1 | > 1 | < 0.1 | < 0.1
3 | Cc1cc(C(=O)N[C@H]2CCCCC/C=C\[C@@H]3C[C@@]3(C(=O)NS(=O)(=O)C3(C)CC3)NC(=O)[C@@H]3C[C@@H](Oc4nc5cc(OC(F)(F)F)ccc5c5ccc(F)cc45)CN3C2=O)no1 | > 1 | 0.1 to 0.5 | 0.1 to 0.5
4 | Cc1cc(C(=O)N[C@H]2CCCCC/C=C\[C@@H]3C[C@@]3(C(=O)NS(=O)(=O)C3CC3)NC(=O)[C@@H]3C[C@@H](Oc4nc5cc(F)ccc5c5cc(OC(F)(F)F)ccc45)CN3C2=O)no1 | > 1 | 0.1 to 0.5 | < 0.1
5 | CC1(S(=O)(=O)NC(=O)[C@@]23C[C@H]2/C=C\CCCCC[C@H](NC(=O)c2ccon2)C(=O)N2C[C@H](Oc4nc5cc(OC(F)(F)F)ccc5c5ccc(F)cc45)C[C@H]2C(=O)N3)CC1 | 0.5 to 1 | < 0.1 | < 0.1
6 | COc1ccc2c(c1)nc(O[C@@H]1C[C@H]3C(=O)N[C@]4(C(=O)NS(=O)(=O)C5(C)CC5)C[C@H]4/C=C\CCCCC[C@H](NC(=O)c4ccn(C(F)F)n4)C(=O)N3C1)c1ccc(F)cc12 | 0.5 to 1 | 0.1 to 0.5 | 0.1 to 0.5
7 | Cn1ccc(C(=O)N[C@H]2CCCCC/C=C\[C@@H]3C[C@@]3(C(=O)NS(=O)(=O)C3CC3)NC(=O)[C@@H]3C[C@@H](Oc4nc5ccccc5c5cc(OC(F)(F)F)ccc45)CN3C2=O)n1 | > 1 | 0.1 to 0.5 | 0.1 to 0.5
8 | CC1(S(=O)(=O)NC(=O)[C@@]23C[C@H]2/C=C\CCCCC[C@H](NC(=O)[C@H](O)C(F)(F)F)C(=O)N2C[C@H](Oc4nc5ccccc5c5cc(F)ccc45)C[C@H]2C(=O)N3)CC1 | > 1 | < 0.1 | < 0.1
9 | CC1(S(=O)(=O)NC(=O)[C@@]23C[C@H]2/C=C\CCCCC[C@H](NC(=O)c2ccon2)C(=O)N2C[C@H](Oc4nc5cc(OC(F)(F)F)ccc5c5cc(F)ccc45)C[C@H]2C(=O)N3)CC1 | 0.1 to 0.5 | 0.1 to 0.5 | 0.1 to 0.5
10 | CC1(S(=O)(=O)NC(=O)[C@@]23C[C@H]2/C=C\CCCCC[C@H](NC(=O)c2ccon2)C(=O)N2C[C@H](Oc4nc5cc(OC(F)(F)F)ccc5c5ccccc45)C[C@H]2C(=O)N3)CC1 | 0.1 to 0.5 | < 0.1 | < 0.1
11 | CC1(S(=O)(=O)NC(=O)[C@@]23C[C@H]2/C=C\CCCCC[C@H](NC(=O)c2cncs2)C(=O)N2C[C@H](Oc4nc5cc(OC(F)(F)F)ccc5c5ccc(F)cc45)C[C@H]2C(=O)N3)CC1 | > 1 | 0.1 to 0.5 | 0.1 to 0.5
12 | Cc1ccc(C(=O)N[C@H]2CCCCC/C=C\[C@@H]3C[C@@]3(C(=O)NS(=O)(=O)C3(C)CC3)NC(=O)[C@@H]3C[C@@H](Oc4nc5cc(F)ccc5c5cc(F)ccc45)CN3C2=O)s1 | > 1 | 0.1 to 0.5 | 0.1 to 0.5
13 | CC1(S(=O)(=O)NC(=O)[C@@]23C[C@H]2/C=C\CCCCC[C@H](NC(=O)c2ccon2)C(=O)N2C[C@H](Oc4nc5ccccc5c5cc(F)ccc45)C[C@H]2C(=O)N3)CC1 | 0.5 to 1 | 0.1 to 0.5 | < 0.1
14 | CC1(S(=O)(=O)NC(=O)[C@@]23C[C@H]2/C=C\CCCCC[C@H](NC(=O)c2ccn(C(F)F)n2)C(=O)N2C[C@H](Oc4nc5cc(F)ccc5c5cc(OC(F)(F)F)ccc45)C[C@H]2C(=O)N3)CC1 | > 1 | 0.1 to 0.5 | 0.1 to 0.5
15 | CC1(S(=O)(=O)NC(=O)[C@@]23C[C@H]2/C=C\CCCCC[C@H](NC(=O)[C@H](O)C(F)(F)F)C(=O)N2C[C@H](Oc4nc5cc(F)ccc5c5cc(F)ccc45)C[C@H]2C(=O)N3)CC1 | > 1 | < 0.1 | < 0.1
16 | Cc1cc(C(=O)N[C@H]2CCCCC/C=C\[C@@H]3C[C@@]3(C(=O)NS(=O)(=O)C3(C)CC3)NC(=O)[C@@H]3C[C@@H](Oc4nc5cc(F)ccc5c5ccc(OC(F)(F)F)cc45)CN3C2=O)no1 | > 1 | 0.1 to 0.5 | < 0.1
17 | Cc1ccc(C(=O)N[C@H]2CCCCC/C=C\[C@@H]3C[C@@]3(C(=O)NS(=O)(=O)C3(C)CC3)NC(=O)[C@@H]3C[C@@H](Oc4nc5ccccc5c5cc(F)ccc45)CN3C2=O)o1 | 0.1 to 0.5 | 0.1 to 0.5 | 0.1 to 0.5
18 | Cn1ccc(C(=O)N[C@H]2CCCCC/C=C\[C@@H]3C[C@@]3(C(=O)NS(=O)(=O)C3(C)CC3)NC(=O)[C@@H]3C[C@@H](Oc4nc5cc(F)ccc5c5cc(OC(F)(F)F)ccc45)CN3C2=O)n1 | > 1 | 0.1 to 0.5 | 0.1 to 0.5
19 | CC1(S(=O)(=O)NC(=O)[C@@]23C[C@H]2/C=C\CCCCC[C@H](NC(=O)c2ccn(C(F)F)n2)C(=O)N2C[C@H](Oc4nc5cc(F)ccc5c5ccc(OC(F)(F)F)cc45)C[C@H]2C(=O)N3)CC1 | > 1 | 0.1 to 0.5 | 0.1 to 0.5
20 | CC1(S(=O)(=O)NC(=O)[C@@]23C[C@H]2/C=C\CCCCC[C@H](NC(=O)[C@H](O)C(F)(F)F)C(=O)N2C[C@H](Oc4nc5cc(OC(F)(F)F)ccc5c5ccccc45)C[C@H]2C(=O)N3)CC1 | 0.5 to 1 | < 0.1 | < 0.1
21 | Cc1cc(C(=O)N[C@H]2CCCCC/C=C\[C@@H]3C[C@@]3(C(=O)NS(=O)(=O)C3(C)CC3)NC(=O)[C@@H]3C[C@@H](Oc4nc5ccccc5c5ccc(OC(F)(F)F)cc45)CN3C2=O)no1 | > 1 | 0.1 to 0.5 | < 0.1
22 | Cn1ccc(C(=O)N[C@H]2CCCCC/C=C\[C@@H]3C[C@@]3(C(=O)NS(=O)(=O)C3(C)CC3)NC(=O)[C@@H]3C[C@@H](Oc4nc5cc(OC(F)(F)F)ccc5c5ccc(F)cc45)CN3C2=O)n1 | 0.1 to 0.5 | < 0.1 | < 0.1
23 | Cc1ccc(C(=O)N[C@H]2CCCCC/C=C\[C@@H]3C[C@@]3(C(=O)NS(=O)(=O)C3(C)CC3)NC(=O)[C@@H]3C[C@@H](Oc4nc5cc(OC(F)(F)F)ccc5c5cc(F)ccc45)CN3C2=O)s1 | 0.1 to 0.5 | 0.1 to 0.5 | 0.5 to 1
24 | Cn1ccc(C(=O)N[C@H]2CCCCC/C=C\[C@@H]3C[C@@]3(C(=O)NS(=O)(=O)C3(C)CC3)NC(=O)[C@@H]3C[C@@H](Oc4nc5ccccc5c5ccc(OC(F)(F)F)cc45)CN3C2=O)n1 | 0.1 to 0.5 | 0.1 to 0.5 | 0.1 to 0.5
25 | Cc1cc(C(=O)N[C@H]2CCCCC/C=C\[C@@H]3C[C@@]3(C(=O)NS(=O)(=O)C3CC3)NC(=O)[C@@H]3C[C@@H](Oc4nc5ccccc5c5cc(OC(F)(F)F)ccc45)CN3C2=O)no1 | > 1 | 0.1 to 0.5 | < 0.1
26 | CC1(S(=O)(=O)NC(=O)[C@@]23C[C@H]2/C=C\CCCCC[C@H](NC(=O)c2ccn(C(F)F)n2)C(=O)N2C[C@H](Oc4nc5ccccc5c5ccc(OC(F)(F)F)cc45)C[C@H]2C(=O)N3)CC1 | > 1 | 0.1 to 0.5 | 0.1 to 0.5
27 | Cc1ccc(C(=O)N[C@H]2CCCCC/C=C\[C@@H]3C[C@@]3(C(=O)NS(=O)(=O)C3(C)CC3)NC(=O)[C@@H]3C[C@@H](Oc4nc5ccccc5c5ccc(OC(F)(F)F)cc45)CN3C2=O)o1 | < 0.1 | 0.1 to 0.5 | 0.1 to 0.5
